# From patent publication US20060057669A1, “Inactive transcription factor tif-ia and uses thereof” (priority 2002, published 2006)
# Read-outs that look alike come from different tables or passages of the source.
# What was measured:
# Pol I transcription [1] = assay: Complementation of Pol I transcription in nuclear extracts from rapamycin-treated FM3A cells; format: biochemical
# Method: (B) Complementation of transcriptional activity in nuclear extracts from rapamycin-treated cells. Transcription reactions contained nuclear extracts (30 μg) from untreated (NE) or rapamycin-treated (NERapa) FM3A cells. In lanes 3-7, fractions containing partially purified Pol I transcription factors were added to NERapa-containing reactions.
# (C) TIF-IA activates transcription in nuclear extracts form rapamycin-treated cells. Reactions were complemented with either 1 μl (lanes 2 and 5) of cellular TIF-IA (PL-650 fraction) or 20 ng (lanes 3 and 6) of immunopurified recombinant TIF-IA that has been expressed in SF9 cells.
# (A) mTOR rescues transcription in vitro. Pol I transcription was assayed in nuclear extracts from rapamycin-treated FM3A cells. Reactions were supplemented with 50 ng TIF-IA (lane 1) or 10 ng, 20 ng and 30 ng of HA-mTOR (lanes 3-5).
# (B) S6K1 activates Pol I transcription in extracts from rapamycin-treated cells. NERapa was supplemented with 50 ng TIF-IA (lane 1) or 100, 150 and 200 ng of GST-S6K1 (lanes 3-5) or GST-S6K1dd (lanes 6-8).
# (§1) Nuclear extracts were prepared from exponentially growing (8×10^5 cells/ml), density-arrested or PD98059-treated (CN Bioscience, Bad Soden, Germany) 40 μM, 0.5 hr) or rapamycin-treated FM3A cells (ATCC, Manassas, USA). 25 μl assays contained 50 ng of template DNA (pMr600/EcoRI), 30 μg nuclear extract proteins and 12 mM Hepes-KOH, [pH8.0], 0.1 mM EDTA, 5 mM MgCl2, 80 mM KCl, 10 mM creatine phosphate, 12% (v/v) glycerol, 0.66 mM each of ATP, GTP and CTP, 0.01 mM UTP and 0.5 μCi [α-^32P]UTP (5000 Ci/mmol). After incubation for 60 min at 30° C., RNA was extracted and analyzed on non-denaturing 5% polyacrylamide gels
# mTOR and S6K1 were purified from HEK293T cells overexpressing HA-tagged mTOR or GST/myc-tagged S6K1, respectively. 5×10^6 cells were lysed in 0.8 ml IP buffer, centrifuged at 10,000×g for 20 min, and the supernatants were incubated for 4 hr at 4° C. with either 15 μg anti-HA antibodies bound to 20 μl protein G-agarose (for HA-mTOR) or 20 μl packed GST-glutathione beads (for GST-myc-S6K1). […]
# Pol I transcription [2] = assay: Complementation of Pol I transcription in nuclear extracts from PD98059-treated FM3A cells; format: biochemical
# Method: (C) TIF-IA, but not UBF, rescues Pol I transcription in extracts from PD98059-treated cells. Nuclear extracts from untreated or PD98059-treated FM3A cells were supplemented with 20 and 40 ng of purified TIF-IA and/or UBF (10 ng in lanes 7 and 9, 50 ng in lanes 3, 8 and 10).
# (D) TIF-IA activates transcription in extracts from PD98059-treated cells in the presence of AMP-PNP and GMP-PNP. Nuclear extracts from PD98059-treated FM3A cells were supplemented with 40 ng of purified TIF-IA and assayed in the standard transcription system containing ATP and GTP (ATP, lanes 1, 2) or AMP-PNP and GMP-PNP (AMP-PNP, lanes 3, 4)
# (D) ERK/RSK-dependent phosphorylation activates Pol I transcription in vitro. Nuclear extracts from PD98059-treated FM3A cells were supplemented with 40 ng of TIF-IA, 10 ng of HA-RSK, or 10 ng of HA-ERK as indicated, and transcriptional activity was assayed in the standard transcription system containing ATP and GTP (lanes 4-8) or AMP-PNP and GMP-PNP (lanes 9-13).
# as §1
# To test whether both TIF-IA and UBF, or TIF-IA alone, were targeted by ERK-mediated phosphorylation, nuclear extracts from untreated and PD98059-treated cells were assayed for rDNA transcription in the absence and presence of exogenous TIF-IA or UBF (FIG. 2C). If both UBF and TIF-IA were inactivated by PD98059, rescue of Pol I transcriptional activity would require both factors, whereas TIF-IA alone would be sufficient if it was the only factor that is inactivated by inhibition of the ERK pathway. […]
substance,measurement,setting,value
"TIF-IA: wild-type human transcription initiation factor TIF-IA, accession No. AJ272050",rescue of Pol I transcription in extracts from rapamycin-treated cells,Pol I transcription [1],relieved rapamycin-mediated transcriptional repression
same,rescue of Pol I transcription in extracts from rapamycin-treated cells,Pol I transcription [1]; listed as recombinant TIF-IA,restored transcriptional activity
same,rescue of Pol I transcription in extracts from PD98059-treated cells,Pol I transcription [2]; in the presence of AMP-PNP and GMP-PNP,activation of Pol I transcription by TIF-IA was also observed
same,rescue of Pol I transcription in extracts from PD98059-treated cells,Pol I transcription [2]; standard transcription system containing ATP and GTP,rescued
